Measurements published in article PMC5933261, “A phase 1 dose-escalation study of veliparib with bimonthly FOLFIRI in patients with advanced solid tumours” (British Journal of Cancer, 2018).
Entries after “also recorded” stand apart in the source; their conditions may differ.

How the values were obtained:
[1] = tested on: patients with advanced solid tumours
Source text: This phase 1 open-label, multicentre, dose-escalation, and safety expansion study evaluated veliparib in combination with bimonthly FOLFIRI in patients with advanced solid tumours. The primary objectives were to determine the maximum tolerated dose (MTD) and establish the recommended phase 2 dose (RP2D) of the combination therapy. Secondary objectives were to assess the safety and tolerability, PK profile, and exploratory efficacy of the combination for each of the FOLFIRI regimens. Patients received veliparib and bimonthly FOLFIRI in 28-day cycles. Veliparib was administered on days 15–19 in cycle 1 and on days 1–5 and 15–19 in subsequent cycles (Fig. 1). Patients with stable disease or better status could continue veliparib and bimonthly FOLFIRI at the investigator’s discretion until progressive disease (PD), unacceptable toxicity, or FOLFIRI discontinuation. The trial was registered with the ClinicalTrials.gov registry (NCT01123876) and was approved by appropriate independent ethics committees/institutional review boards prior to initiation. The study was performed in accordance with the 1964 Declaration of Helsinki and its later amendments. Written informed consent was obtained from all patients before study enrollment.
Dose escalation occurred in three parts to evaluate the MTD/RP2D of three different bimonthly FOLFIRI regimens in combination with veliparib (Fig. 1). A minimum of three patients per dose level were included for dose-toxicity modeling. In part 1, dose escalation began with veliparib twice daily (BID) on days 15–19 of cycle 1 (to allow the determination of single-agent PK for irinotecan, the active metabolite of irinotecan (SN-38), folinic acid, and 5-FU on cycle 1 day 1). In parts 2 and 3, dose escalation began with veliparib BID on day 15 of cycle 1. The differences in the dosing schedules of parts 1, 2, and 3 relate to dosing of irinotecan and 5-FU, and are detailed in Fig. 1. In all parts, veliparib continued to be administered on days 1–5 and 15–19 of each subsequent 28-day cycle. […]

[2] = Veliparib pharmacokinetics, cycle 1 day 15; format: in vivo, human; conditions: co-administered with FOLFIRI; 10–270 mg BID
[3] = Pharmacokinetics of FOLFIRI components with and without veliparib (relative bioavailability); conditions: cycle 1 day 15 vs cycle 1 day 1
Experimental: Treatment-emergent adverse events (TEAEs) were assessed from the time of study drug administration until 30 days following discontinuation of study drug. TEAEs were assessed according to the National Cancer Institute Common Terminology Criteria for Adverse Events version 4.0. In dose-escalation cohorts, blood samples were collected on day 15 of cycle 1 for veliparib PK, and on days 1 and 15 of cycle 1 for PK assessment of the FOLFIRI components irinotecan, SN-38, folinic acid (leucovorin), and 5-FU. Exploratory efficacy end points included objective response rate (ORR), time to disease progression (TTP), duration of overall response (DOR), and ECOG performance status. Objective response rate included confirmed complete response (CR) and partial response (PR). Objective response rate evaluation was based on Response Evaluation Criteria in Solid Tumours version 1.1. Objective response rate was calculated for all patients with one or more measurable lesions at baseline. Time to disease progression was defined as the number of days from the date the patient started study drug to the date of the patient’s disease progression. Duration of overall response was defined as the number of days from the day criteria were met for CR or PR (whichever was recorded first) to the date that PD was objectively documented. If a patient was still responding, the patient’s data were censored at the date of the last study visit at which a tumour assessment was performed. Analyses of change and/or percentage change from baseline for tumour size were performed for each scheduled post-baseline visit and for the final visit. ECOG performance status was assessed at all visits, with descriptive statistics summarised for each assessment. In addition, a mean change from baseline to each assessment time was summarised.
The sample size was based on clinical justification. No specific statistical hypothesis tests were planned, with descriptive statistics used for the analysis of safety, PK, and tumour response data. The study population for all safety and preliminary efficacy analyses included patients who received one or more doses of study medication. Data from parts 1–3 of the dose-escalation cohort were combined for assessment of the effect of veliparib on the PK of irinotecan, SN-38, and folinic acid. Linear mixed effects models were performed on natural logarithmically transformed maximum plasma concentration (Cmax) and area under the plasma or serum concentration-time curve (AUC) to compare exposure of irinotecan, SN-38, and folinic acid with and without the administration of veliparib. Point estimates and the corresponding 90% confidence intervals (CIs) of the ratio of central values with and without veliparib administration were calculated.

advanced solid tumours = assay: Exploratory efficacy: ORR (RECIST version 1.1), TTP, DOR; format: in vivo, human
Source text: The sample size was based on clinical justification.

[4] = tested on: triple-negative breast cancer; design: method as in doi:10.1158/1538-7445.AM2015-CT325; conditions: veliparib in combination with irinotecan; cohort with germline BRCA mutation; cited from earlier work

Question: What does the source list for C[C@]1(c2nc3c(C(N)=O)cccc3[nH]2)CCCN1 [veliparib, Veliparib]?
Answer: Recommended phase 2 dose (RP2D) of veliparib ([1]; human, in vivo): 200 mg BID; Maximum tolerated dose (MTD) ([1]; veliparib 10–270 mg BID plus FOLFIRI, Bayesian CRM): not reached; Dose proportionality of veliparib exposure (Cmax, AUC) [2]: approximately dose-proportional; also recorded: approximate dose proportionality; Effect of veliparib on the pharmacokinetics of FOLFIRI components [3]: no significant effect; Effect of veliparib on the pharmacokinetics of FOLFIRI components ([3]; listed as Veliparib): no effect; Median time to disease progression (TTP) (advanced solid tumours; expanded safety cohort, colorectal (N=6)): 195 days; 6-month TTP rate (advanced solid tumours; expanded safety cohort, colorectal cancer (n = 6), veliparib RP2D plus FOLFIRI): 60.0%; Median time to disease progression (TTP) (advanced solid tumours; expanded safety cohort, gastric (N=14)): 223 days; 6-month TTP rate (advanced solid tumours; expanded safety cohort, gastric cancer (n = 14), veliparib RP2D plus FOLFIRI): 53.8%; Complete response (CR) (advanced solid tumours; veliparib plus FOLFIRI): not achieved by any patients; Patients with a partial response (advanced solid tumours; veliparib plus FOLFIRI): Fifteen; Objective response rate (ORR) (advanced solid tumours; veliparib plus FOLFIRI, 85 patients with measurable lesions at baseline): 17.6%; ORR (CR + PR) (advanced solid tumours; veliparib plus FOLFIRI, Breast n = 8): 2 (25.0) (3.2–65.1) n (%) (95% CI); ORR (CR + PR) (advanced solid tumours; veliparib plus FOLFIRI, Colorectal n = 9): 2 (22.2) (2.8–60.0) n (%) (95% CI); ORR (CR + PR) (advanced solid tumours; veliparib plus FOLFIRI, Gastric n = 20): 3 (15.0) (3.2–37.9) n (%) (95% CI); ORR (CR + PR) (advanced solid tumours; veliparib plus FOLFIRI, Other n = 27): 3 (11.1) (2.4–29.2) n (%) (95% CI); ORR (CR + PR) (advanced solid tumours; veliparib plus FOLFIRI, Ovarian n = 7): 3 (42.9) (9.9–81.6) n (%) (95% CI); ORR (CR + PR) (advanced solid tumours; veliparib plus FOLFIRI, Overall n = 85, measurable lesions at baseline): 15 (17.6) (10.2–27.4) n (%) (95% CI); ORR (CR + PR) (advanced solid tumours; veliparib plus FOLFIRI, Pancreatic n = 14): 2 (14.3) (1.8–42.8) n (%) (95% CI); Median time to disease progression (TTP) (advanced solid tumours; veliparib plus FOLFIRI, all dosed patients, colorectal (N=10)): 195 days; Median time to disease progression (TTP) (advanced solid tumours; veliparib plus FOLFIRI, all dosed patients, gastric (N=20)): 157 days; Median time to disease progression (TTP) (advanced solid tumours; veliparib plus FOLFIRI, all dosed patients, ovarian (N=9)): 361 days; Objective response rate (ORR) (advanced solid tumours; veliparib plus FOLFIRI, breast cancer): 25.0%; 6-month TTP rate (advanced solid tumours; veliparib plus FOLFIRI, breast cancer (n = 9)): 22.2%; Objective response rate (ORR) (advanced solid tumours; veliparib plus FOLFIRI, colorectal cancer): 22.2%; 6-month TTP rate (advanced solid tumours; veliparib plus FOLFIRI, colorectal cancer (n = 10)): 50.8%; 6-month TTP rate (advanced solid tumours; veliparib plus FOLFIRI, gastric cancer (n = 20)): 45.9%; 6-month TTP rate (advanced solid tumours; veliparib plus FOLFIRI, other cancers (n = 30)): 21.2%; Objective response rate (ORR) (advanced solid tumours; veliparib plus FOLFIRI, ovarian cancer (n = 7)): 42.9%; 6-month TTP rate (probability of remaining progression-free for 6 months) (advanced solid tumours; veliparib plus FOLFIRI, ovarian cancer (n = 9)): 65%; Objective response rate (ORR) (advanced solid tumours; veliparib plus FOLFIRI, pancreatic cancer): 14.3%; 6-month TTP rate (advanced solid tumours; veliparib plus FOLFIRI, pancreatic cancer (n = 14)): 26.8%; Median duration of overall response (DOR) (advanced solid tumours; veliparib plus FOLFIRI, patients who received irinotecan 150 mg/m^2): 560 days; Response rates (advanced solid tumours; veliparib plus FOLFIRI, previously treated patient population): over 15%; Preliminary response rate [4]: 88%
